Experimental data taken from PMC12504763, “Antiproliferation, 3D-multicellular spheroid and VEGFR-2 inhibitory properties of spiroindolin-2-ones with phosphonate function” (Scientific Reports, 2025).
Read-outs that look alike come from different tables or passages of the source.

How the values were obtained:
[1] = system: HCT116 (colon) cancer cell line; experiment: 2D-monolayer antiproliferation (MTT) against HCT116; format: cell-based, human; conditions: for IC50: Homo sapiens, HCT-116; for SI (selectivity index) HCT116: IC50 of RPE1 normal cell/IC50 of HCT116
[2] = system: PaCa2 (pancreatic) cancer cell line; experiment: 2D-monolayer antiproliferation (MTT) against PaCa2; format: cell-based, human; conditions: for 1/(observed property): 1/observed IC50 (μM), PaCa2; for IC50: Homo sapiens, PaCa-2, MTT, 72 h incubation, PaCa2 pancreatic, read-out: IC50, μM ± SEM PaCa2; for SI (selectivity index) PaCa2: IC50 of RPE1 normal cell/IC50 of PaCa2
[3] = system: MCF7 (breast) cancer cell line; experiment: 2D-monolayer antiproliferation (MTT) against MCF7; format: cell-based, human; conditions: for IC50: Homo sapiens, MTT, 72 h incubation, MCF7 breast, read-out: IC50, μM ± SEM MCF7; for SI (selectivity index) MCF7: IC50 of RPE1 normal cell/IC50 of MCF7
[4] = system: A549 (lung) cancer cell line; experiment: 2D-monolayer antiproliferation (MTT) against A549; format: cell-based, human; conditions: for IC50: Homo sapiens, MTT, 72 h incubation, A549 lung, read-out: IC50, μM ± SEM A549; for SI (selectivity index) A549: IC50 of RPE1 normal cell/IC50 of A549
[5] = system: RPE1 (normal human immortalized retinal pigment epithelial cell line); experiment: cells; format: cell-based; conditions: for IC50: Homo sapiens, RPE-1, MTT, normal RPE1 cell, read-out: IC50, μM ± SEM RPE1; for selectivity index (SI): IC50 against RPE1 compared to the tested cancer cell line(s), in words
VEGFR-2 [6] = target: T1, VEGFR-2 (Homo sapiens, UniProt P35968); experiment: cell-based; format: cell-based; conditions: for inhibition at 10 µM: HCT-116, HCT116; for VEGFR-2 pg/mL ± SEM HCT116: at 10 μM, control 317.80 ± 3.5
T1 construct: endogenous in cells; host or cells: HCT116, PaCa2, MCF7 (human cancer cell lines, ATCC origin)

VEGFR-2 [7] = target: T1, VEGFR-2; experiment: cell-based; format: cell-based; conditions: for inhibition at 10 µM: PaCa-2, PaCa2; for VEGFR-2 pg/mL ± SEM PaCa2: at 10 μM, control 326.80 ± 1.9
VEGFR-2 [8] = target: T1, VEGFR-2; experiment: cell-based; format: cell-based; conditions: for inhibition at 10 µM: MCF7; for VEGFR-2 pg/mL ± SEM MCF7: at 10 μM, control 258.70 ± 2.3
COX-1 = target: T2, COX-1 (Ovis aries, UniProt P05979); experiment: biochemical; conditions: 3 replicates, read-out: % Inhibition of COX-1 ± SEM
T2 construct: purchased BioVision incorporated USA K548–100
T2 sequence (P05979 25-600): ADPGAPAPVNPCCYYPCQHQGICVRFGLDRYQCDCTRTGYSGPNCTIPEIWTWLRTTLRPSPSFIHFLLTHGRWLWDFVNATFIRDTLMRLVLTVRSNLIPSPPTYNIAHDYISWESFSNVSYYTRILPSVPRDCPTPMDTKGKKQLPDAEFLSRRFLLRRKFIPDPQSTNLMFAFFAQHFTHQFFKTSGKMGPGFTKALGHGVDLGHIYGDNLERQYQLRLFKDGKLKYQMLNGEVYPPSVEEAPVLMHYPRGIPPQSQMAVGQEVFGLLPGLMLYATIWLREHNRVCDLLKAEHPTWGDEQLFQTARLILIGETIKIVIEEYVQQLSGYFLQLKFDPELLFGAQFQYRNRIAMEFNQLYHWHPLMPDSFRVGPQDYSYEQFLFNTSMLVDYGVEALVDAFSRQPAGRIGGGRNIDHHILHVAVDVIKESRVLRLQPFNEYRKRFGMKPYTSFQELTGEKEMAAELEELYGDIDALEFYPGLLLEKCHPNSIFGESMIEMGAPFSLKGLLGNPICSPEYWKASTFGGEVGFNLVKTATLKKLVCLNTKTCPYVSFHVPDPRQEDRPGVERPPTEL

COX-2 = target: T3, COX-2 (Homo sapiens, UniProt P35354); experiment: biochemical; conditions: for inhibition at 10 µM: 3 replicates, read-out: % Inhibition of COX-2 ± SEM; for SI (selectivity index, COX-2/COX-1): at 10 μM
T3 construct: purchased BioVision incorporated USA K548–100
T3 sequence (P35354 18-604): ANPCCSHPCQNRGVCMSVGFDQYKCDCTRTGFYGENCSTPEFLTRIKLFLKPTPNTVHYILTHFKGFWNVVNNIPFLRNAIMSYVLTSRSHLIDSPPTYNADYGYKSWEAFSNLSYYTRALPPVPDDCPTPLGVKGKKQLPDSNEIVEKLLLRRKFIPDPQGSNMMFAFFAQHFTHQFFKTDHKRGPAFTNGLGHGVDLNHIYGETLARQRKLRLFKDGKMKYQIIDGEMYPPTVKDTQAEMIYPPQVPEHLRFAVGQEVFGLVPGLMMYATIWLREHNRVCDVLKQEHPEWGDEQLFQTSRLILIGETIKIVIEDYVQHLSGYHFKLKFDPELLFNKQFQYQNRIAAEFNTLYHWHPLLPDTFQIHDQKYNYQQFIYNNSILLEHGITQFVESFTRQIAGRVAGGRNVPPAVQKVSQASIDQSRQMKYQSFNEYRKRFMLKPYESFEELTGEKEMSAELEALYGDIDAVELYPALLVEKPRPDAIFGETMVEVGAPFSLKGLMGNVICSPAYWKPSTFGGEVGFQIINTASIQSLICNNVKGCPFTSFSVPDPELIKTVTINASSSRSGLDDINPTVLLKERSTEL

TNF-α [9] = experiment: TNF-α inhibitory properties (ELISA), HCT116 cell lysate; format: cell-based, human; conditions: at 10 μM; for TNF-α pg/mL (± SEM) HCT116: control 95.74 ± 0.5
TNF-α [10] = experiment: TNF-α inhibitory properties (ELISA), PaCa2 cell lysate; format: cell-based, human; conditions: at 10 μM; for TNF-α pg/mL (± SEM) PaCa2: control 111.8 ± 2.0
TNF-α [11] = experiment: TNF-α inhibitory properties (ELISA), MCF7 cell lysate; format: cell-based, human; conditions: at 10 μM; for TNF-α pg/mL (± SEM) MCF7: control 83.26 ± 1.1
[12] = MTT, 72 h incubation, HCT116 colon, read-out: IC50, μM ± SEM HCT116
[13] = log of observed IC50 (μM), HCT116, read-out: Log(observed property) (converted)

T1 sequence (P35968 20-1356): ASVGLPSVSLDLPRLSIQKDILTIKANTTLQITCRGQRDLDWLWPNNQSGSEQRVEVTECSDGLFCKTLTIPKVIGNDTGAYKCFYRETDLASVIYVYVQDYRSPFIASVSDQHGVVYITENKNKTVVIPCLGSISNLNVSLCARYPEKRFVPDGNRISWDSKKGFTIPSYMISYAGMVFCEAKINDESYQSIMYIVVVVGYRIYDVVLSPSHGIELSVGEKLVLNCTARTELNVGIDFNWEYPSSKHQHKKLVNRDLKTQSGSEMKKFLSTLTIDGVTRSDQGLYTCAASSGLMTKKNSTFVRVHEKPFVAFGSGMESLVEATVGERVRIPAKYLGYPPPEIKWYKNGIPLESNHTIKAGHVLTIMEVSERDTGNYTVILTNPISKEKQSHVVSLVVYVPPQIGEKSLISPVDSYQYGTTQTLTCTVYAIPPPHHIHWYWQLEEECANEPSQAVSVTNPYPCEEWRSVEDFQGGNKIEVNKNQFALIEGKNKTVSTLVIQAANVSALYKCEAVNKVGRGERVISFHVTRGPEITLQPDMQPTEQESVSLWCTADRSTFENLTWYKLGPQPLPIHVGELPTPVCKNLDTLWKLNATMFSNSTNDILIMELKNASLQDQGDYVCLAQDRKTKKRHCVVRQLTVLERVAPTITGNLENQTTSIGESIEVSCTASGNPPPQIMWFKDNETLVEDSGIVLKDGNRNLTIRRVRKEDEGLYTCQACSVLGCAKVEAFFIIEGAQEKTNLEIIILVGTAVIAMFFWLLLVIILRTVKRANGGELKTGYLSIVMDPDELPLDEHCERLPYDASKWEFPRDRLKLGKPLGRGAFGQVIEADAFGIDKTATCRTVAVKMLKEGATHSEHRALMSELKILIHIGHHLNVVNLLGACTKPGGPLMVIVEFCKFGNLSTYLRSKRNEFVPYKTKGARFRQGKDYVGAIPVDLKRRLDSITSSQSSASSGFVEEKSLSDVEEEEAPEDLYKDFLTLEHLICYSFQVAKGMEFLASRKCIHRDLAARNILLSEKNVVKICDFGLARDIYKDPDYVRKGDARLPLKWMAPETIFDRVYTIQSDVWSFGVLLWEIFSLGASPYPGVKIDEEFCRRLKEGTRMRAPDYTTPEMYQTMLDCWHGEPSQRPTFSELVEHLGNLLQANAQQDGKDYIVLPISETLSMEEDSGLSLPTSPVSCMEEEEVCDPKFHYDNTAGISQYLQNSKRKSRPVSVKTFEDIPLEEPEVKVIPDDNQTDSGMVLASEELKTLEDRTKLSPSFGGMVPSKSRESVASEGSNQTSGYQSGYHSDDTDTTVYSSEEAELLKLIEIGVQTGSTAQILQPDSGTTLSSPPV

SMILES	IC50 [1, 12] [µM]	IC50 [1, 13] [µM]	SI (selectivity index) HCT116 [1]	IC50 [2] [µM]	SI (selectivity index) PaCa2 [2]	IC50 [3] [µM]	SI (selectivity index) MCF7 [3]	IC50 [4] [µM]	SI (selectivity index) A549 [4]	IC50 [5] [µM]	inhibition at 10 µM (VEGFR-2 [6]) [%]	VEGFR-2 pg/mL ± SEM HCT116 (VEGFR-2 [6]) [pg/mL]	inhibition at 10 µM (VEGFR-2 [7]) [%]	VEGFR-2 pg/mL ± SEM PaCa2 (VEGFR-2 [7]) [pg/mL]	TNF-α % inhibition HCT116 (TNF-α [9]) [%]	TNF-α pg/mL (± SEM) HCT116 (TNF-α [9]) [pg/mL]	TNF-α % inhibition PaCa2 (TNF-α [10]) [%]	TNF-α pg/mL (± SEM) PaCa2 (TNF-α [10]) [pg/mL]	TNF-α % inhibition MCF7 (TNF-α [11]) [%]	TNF-α pg/mL (± SEM) MCF7 (TNF-α [11]) [pg/mL]	other results
CCOP(=O)(OCC)N1C/C(=C\c2ccc(Cl)cc2)C(=O)C2(C1)C(c1ccc(Cl)cc1)CN(C)C21C(=O)Nc2ccc(Cl)cc21 (stereo not shown) [Compound 17j, Diethyl (E)-[5-chloro-5′′-(4-chlorobenzylidene)-4′-(4-chlorophenyl)-1′-methyl-2,4′′-dioxodispiro[indoline-3,2′-pyrrolidine-3′,3′′-piperidin]-1′′-yl]phosphonate]	3.487 ± 0.033	3.49	> 14.3	6.93 ± 0.337	> 7.2	3.87 ± 0.102	> 12.9	6.06 ± 0.157	> 8.3	> 50	80.3	62.50 ± 0.7	92.4	24.78 ± 0.3	14.6	81.78 ± 1.4	11.9	98.5 ± 3.1	0.5	82.87 ± 4.5	1/(observed property) [2]: 0.1443; selectivity index (SI) [5]: high selectivity index; inhibition at 10 µM (VEGFR-2 [8]): 82.7%; VEGFR-2 pg/mL ± SEM MCF7 (VEGFR-2 [8]): 44.80 ± 0.6 pg/mL; inhibition at 10 µM (COX-1): 48.9 ± 1.5%; inhibition at 10 µM (COX-2): 53.5 ± 2.3%; SI (selectivity index, COX-2/COX-1) (COX-2): 1.05
CCOP(=O)(OCC)N1C/C(=C\c2ccc(C)cc2)C(=O)C2(C1)C(c1ccc(C)cc1)CN(C)C21C(=O)Nc2ccc(Cl)cc21 (stereo not shown) [Compound 17o, Diethyl (E)-[5-chloro-1′-methyl-5′′-(4-methylbenzylidene)-2,4′′-dioxo-4′-(p-tolyl)dispiro[indoline-3,2′-pyrrolidine-3′,3′′-piperidin]-1′′-yl]phosphonate]	3.76 ± 0.064	3.76	> 13.3	6.27 ± 0.148	> 8.0	4.67 ± 0.086	> 10.7	36 ± 1.15	> 1.3	> 50	84.8	48.40 ± 0.6	90.3	31.64 ± 1.9	9.8	86.34 ± 0.9	14.5	95.6 ± 2.2	1.7	81.85 ± 3.1	1/(observed property) [2]: 0.1594; selectivity index (SI) [5]: high selectivity index; inhibition at 10 µM (VEGFR-2 [8]): 85%; VEGFR-2 pg/mL ± SEM MCF7 (VEGFR-2 [8]): 38.70 ± 0.4 pg/mL; inhibition at 10 µM (COX-1): 61.7 ± 3.4%; inhibition at 10 µM (COX-2): 59.3 ± 2.4%; SI (selectivity index, COX-2/COX-1) (COX-2): 1.14
CCOP(=O)(OCC)N1C/C(=C\c2ccccc2)C(=O)C2(C1)C(c1ccccc1)CN(C)C21C(=O)Nc2ccc(F)cc21 (stereo not shown) [Compound 17b, Diethyl (E)-(5′′-benzylidene-5-fluoro-1′-methyl-2,4′′-dioxo-4′-phenyldispiro[indoline-3,2′-pyrrolidine-3′,3′′-piperidin]-1′′-yl)phosphonate]	7.41 ± 0.228	7.41	3.1	12.2 ± 0.297	1.9	5.83 ± 0.213	4.0	11 ± 0.135	2.1	23.1 ± 0.884	77	73.25 ± 2.0	88.1	38.75 ± 1.4	1.1	94.64 ± 2.2	5.5	105.7 ± 3.9	–	82.25 ± 2.6	inhibition at 10 µM (VEGFR-2 [8]): 70.2%; VEGFR-2 pg/mL ± SEM MCF7 (VEGFR-2 [8]): 77.20 ± 0.6 pg/mL; inhibition at 10 µM (COX-1): 53.7 ± 3.7%; inhibition at 10 µM (COX-2): 61.3 ± 2.6%; SI (selectivity index, COX-2/COX-1) (COX-2): 1.04
CCOP(=O)(OCC)N1C/C(=C\c2cccs2)C(=O)C2(C1)C(c1cccs1)CN(C)C21C(=O)Nc2ccc(F)cc21 (stereo not shown) [Compound 17r, Diethyl (E)-(5-fluoro-1′-methyl-2,4′′-dioxo-4′-(thiophen-2-yl)-5′′-(thiophen-2-ylmethylene)dispiro[indoline-3,2′-pyrrolidine-3′,3′′-piperidin]-1′′-yl)phosphonate]	7.67 ± 0.379	7.67	2.2	8.29 ± 0.497	2.1	6.22 ± 0.082	2.7	14.18 ± 0.135	1.2	17 ± 0.557	78.8	67.34 ± 0.4	79.6	66.53 ± 0.8	–	27.45 ± 1.4	75.4	27.5 ± 0.5	69.4	25.46 ± 0.9	1/(observed property) [2]: 0.1206; inhibition at 10 µM (VEGFR-2 [8]): 67.4%; VEGFR-2 pg/mL ± SEM MCF7 (VEGFR-2 [8]): 84.30 ± 1.0 pg/mL; inhibition at 10 µM (COX-1): 55.5 ± 2.6%; inhibition at 10 µM (COX-2): 51.8 ± 2%; SI (selectivity index, COX-2/COX-1) (COX-2): 1.09
CC(C)Cc1ccc(C(C)C(=O)O)cc1 (stereo not shown) [Ibuprofen, reference compound]	–	–	–	–	–	–	–	–	–	–	–	–	–	–	22.2	74.5 ± 1.1	42.0	64.8 ± 0.6	7.8	76.8 ± 2.0	–
COc1ccc2c(c1)c(CC(=O)O)c(C)n2C(=O)c1ccc(Cl)cc1 [Indomethacin, reference compound]	–	–	–	–	–	–	–	–	–	–	–	–	–	–	42.8	54.8 ± 0.7	32.6	75.3 ± 2.1	22.9	64.2 ± 1.6	–
